Data on one compound can be found in patent US6649628B1, “N-[2-hydroxy-3-(1-piperidinyl)propoxy]pyridine-1-oxide-3-carboximidoyl chloride and its use in the treatment of insulin resistance” (Biorex Kutato es Fejleszto RT, priority 1999, dated 2003).

Molecules are shown by their SMILES. Read-outs that look alike come from different tables or passages of the source.

In experiment [1] the test system is STZ-diabetic rats. The settings on record: 2 month. As to the method:
After anesthesia (Calypsovet, 125 mg/kg. Ip., Richter Rt., Hungary), the eyes were enucleated and fixed in 4% formaldehyde dissolved in a phosphate buffer (pH:7.4).
Afterwards, they were embedded in paraffin (Medim DDM P800, embedding center: Lignifer L-120-92-014, stainer: Shandon Eliott, Microtome: is Leica SM 2000 R, Microscope: Jenaval Karl Zeiss Jena). Several 6 micron sections of the eyes were prepared, and hematoxilyn/eosine (Fluka) and PAS (periodic acid-Schiff, Fluka) staining were used. The light-microscopic evaluation was performed at a magnification of 40× and 100×. Photographs and slide positives were prepared of representative samples.
The histological evaluation was performed on coded samples, the group division was unknown for the examiner. Pathological deviations of the retina were graded on a scale of 0-20, while those of the lens on a scale of 0-3.
The statistical calculations were done with the Statistica 4.5 (SatSoft, USA) program. The given value for negative cases was 0.1. A Box and Whisker plot graph was also prepared.
For each group in the experiment, the mean±SE (Standard Error) values were calculated, and the comparison was done with the help of a non-parametric Mann-Whitney U-test (Graphpad Instat, San Diego, Calif.).

For experiment [2], the system named is high fat (HF) diet insulin resistant male Wistar rats. Put plainly: Experiment 8: in vivo insulin-dependent glucose uptake (euglycaemic glucose clamp) in dietary induced insulin resistance.
Procedure: Male Wistar rats (Charles River Laboratories Inc.) with an initial body weight of 300-350 g were used in the experiments.
Insulin resistance was induced by dietary manipulation: animals were given a high fat (HF) diet for 3 weeks. In the HF diet the proportion of saturated fats were dominant and gave 70% of total daily caloric intake.
Briefly: the fasting blood glucose concentration in different animal groups must be identical. Experiments were carried out in conscious, freely moving, chronicly canulated rats: first an insulin infusion (6.4 mU/kg/min) was started, followed by a parallel-run continuous glucose infusion to maintain blood glucose concentrations in the euglycaemic range. After stabilisation the quantity of infused glucose was measured for a 90 min. period (glucose infusion rate=GIR, mg/kg/min) which is the quantitative parameter of insulin sensitivity.
For experiment [3], the system named is Zucker Diabetic Fatty (ZDF) rats. Conditions: for Fed serum glucose concentrations: 2 × 20 mg/kg/day. As to the method:
A genetically diabetic animal model was selected and the Zucker Diabetic Fatty (ZDF) rats were used in the experiments. This model is the diabetic variant of the insulin resistant, obese but non-diabetic Zucker fa/fa animal model (see Experiment 1). In the ZDF rats diabetes developed at the age of 6-8 weeks preceded by an insulin resistant phase.
The effect of (A+) enantiomer was investigated in a treatment with a dose of 2×20 mg/kg/day started in the non-diabetic phase, at the age of 7 weeks and continued for 6 weeks.
Clinical chemistry parameters were measured by standard methods. The serum insulin concentrations were measured by a recently developed method (ELISA method, DRG lnternational,Inc., U.S.A.).

Experiment [4] has as its system STZ-diabetic Wistar rats. Description: Experiment 5: urinary protein loss caused by diabetic nephropathy after 1-month treatment. The experiment is classed as in vivo, rat. As to the method:
For the 24-hour period of urine collection, the animals were placed in individual metabolic cages. During this period they were given water ad libitum but no food. The latter measure was necessary to prevent possible contamination by the protein content of the food. Urine was collected in calibrated glass containers, in which Thymol crystal (Reanal 3135-1-08-38) was placed to prevent bacterial contamination.
Before measurement, the urine samples were centrifuged (2500 rpm) and filtered through a paper filter (Whatmann 1). If necessary, they were stored at −20° C. until measurement.
The total protein content of the urine was determined by the Bradford staining method (Sigma B-6916, St. Louis, Mo.), and color intensity was detected by spectrophotometry (Hitachi-U-3200).

The test system of experiment [5] is STZ-diabetic Wistar rats. Description: Experiment 6: Compound-A and enantiomers, nerve conduction velocity after 1 month treatment.
Procedure: In the experiments, male Wistar rats were used (Charles River Laboratories Inc.). At the start of the experiment, their weights were 340-370 g. Diabetes was induced by the intravenous administration of a single 45 mg/kg dose of streptozotocine (STZ, Sigma, St. Louis, Mo.) dissolved in physiological saline solution. The development of diabetes was checked after 1 day by a blood glucose test, accepting a value over 15 mmol/l.
The test and reference substances were administered p.os to the animals once a day.
For the determination of nerve conduction velocity (NCV), the method of Stanley, modified by De Konig and Gispen was used. The animals were anesthetized by the simultaneous administration of Hyponorm (1 mg/kg ip., Janssen, Tilburg, Denmark), fluanisone (10 mg/ml), and phentanyl citrate (0.2 mg/ml). Afterwards, the left ischiadicus and tibial nerves were stimulated at standard points. Supramaximal stimulus (square impulse, 0.03 ms) was used with a platinum needle electrode, through a Nihon-Kohden (model SEN-1104, Japan) stimulator. The electromyogram (EMG) transferred from the sole muscles and intensified by a myograph (Elema-Schonander, Stockholm, Sweden) was analyzed further by the Matlab for Windows (Mathwork Inc, UK) program. The extent of NCV damage caused by diabetes was expressed in m/s. The effectiveness of the treatment was compared to this in terms of percentage (%). The statistical calculations were done by unpaired t-test or single-criterion ANOVA test (along with the Newman-Keuls post hoc test).
For experiment [6], the system named is STZ-diabetic Wistar rats. The source says:
The experiments were accomplished on Wistar rats with a body weight of 320-350 g. Diabetes was induced and checked as described in Experiment 2. In the test animals having been diabetic for 3 weeks the left nervus ischidiacus was injured by freezing and the right side one was used as non-injured control. The regeneration was observed by monitoring the signals of the flexor reflex provoked by irritation of the sole that is areas under curve (AUC) of the electromyogram transferred from the forward tibial muscle. For the stimulation and detection the system described in Experiment 2 was used. Single daily doses of 10 mg/kg of Compound-A and 5 mg/kg of A(+) enantiomer were administred for 5 weeks after the injury by freezing.

Where [7] appears, read: Compound-A 10 mg/kg, enantiomers 5 mg/kg daily.

As to `O=C(O)/C=C\C(=O)O.[O-][n+]1cccc(C(Cl)=NOC[C@H](O)CN2CCCCC2)c1` [A(+), (+)-/R/-N-[2-hydroxy-3-(1-piperidinyl)-propoxy]-pyridine-1-oxide-3-carboximidoyl chloride (Z)-2-butenedioate (1:1)], in experiment [1] (5 mg/kg daily), the “Scores lenticular + retinal improvement %” value is 42.9%, the “Scores lenticular + retinal mean ± SE” value amounted to 4.05 ± 0.80, the “Scores retinal improvement %” value worked out at 68.9% and the “Scores retinal mean ± SE” value was found to be 1.68 ± 0.63. In experiment [1] (setting [7]), the “effect on lenticular and retinal pathologic histological alterations” value is listed as “significantly improved”; the “effect on retinal histological alterations only” value is reported as “effective”. For the same compound, the “effect on fasting blood glucose levels” value in experiment [2] (20 mg/kg daily, 3 weeks) is on record as “did not affect”. Besides, the “in vivo insulin mediated glucose uptake (glucose infusion rate, GIR)” value in experiment [2] (20 mg/kg/day for 3 weeks, euglycaemic glucose clamp, insulin infusion 6.4 mU/kg/min) was 20.5 ± 0.89 mg/kg/min. In experiment [3] (2×20 mg/kg/day), the “antidiabetic activity in diabetic animals” value is reported as “strong antidiabetic activity” and the “normalization of blood glucose concentrations” value was “did not normalize”. Besides, the “Fed serum glucose concentrations” value in experiment [3] (3 weeks) was determined as 10.82 ± 1.36 mmol/L. For the same compound, the “Fed serum glucose concentrations” value in experiment [3] (5 weeks) came out at 13.25 ± 0.76 mmol/L. Besides, in experiment [4] (5 mg/kg daily, 1 month, series 2), the “24-hour Urinary Protein Loss Mean ± SE” value is given as 5.61 ± 1.08 mg/24 h. In addition, the “effect on STZ-diabetes-induced urinary protein loss” value in experiment [4] (Bimoclomol 20 mg/kg, Compound-A 10 mg/kg, (+) enantiomer 5 mg/kg daily) was “significantly reduced”. In experiment [5] (5 mg/kg daily, 1 month), this compound had an MNCV of 56.1 ± 0.5 m/s, an MNCV improvement of 71.3%, an SNCV of 59.7 ± 0.5 m/s and an SNCV improvement of 68.5%. Further, the “effect on motor (MNCV) and sensory (SNCV) nerve conduction velocity deficits” value in experiment [5] (setting [7]) is reported as “significantly improved”. Moreover, in experiment [6] (5 mg/kg daily for 5 weeks), the “neuroregeneration of the non-freezed nerves” value is listed as 83% and the “neuroregenerative effect” value is listed as “strong neuroregenerative effect”. Moreover, the “extent of neuroregeneration of the nerve injured by freezing” value in experiment [6] (5 mg/kg daily for 5 weeks after injury, 5. week, untreated 63%) was 93%.
